Test results published in patent publication US10420341B2, “Herbicidal phenylpyrimidines” (BASF SE, priority 2015, dated 2019).

How the values were obtained:
APESV [1] = assay: greenhouse pre-emergence herbicidal test; assay type: in vivo, Apera spica-venti; settings: pre-emergence method, scale from 0 to 100
In short: (§1)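 Damage was rated on a 0 to 100 scale, where 0 is normal growth and 100 is no emergence or full destruction of aerial parts, after 2 to 4 weeks. Treatment was applied pre-emergence, right after sowing, as an aqueous suspension or emulsion via fine nozzles.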

LOLMU = assay: greenhouse post-emergence herbicidal test; assay type: in vivo, Lolium multiflorum; settings: post-emergence method, scale from 0 to 100
Description: (§2) The seeds of the test plants were sown separately for each species. For the post-emergence treatment, the test plants were first grown to a height of 3 to 15 cm, depending on the plant habit, and only then treated with the active ingredients which had been suspended or emulsified in water. For this purpose, the test plants were either sown directly and grown in the same containers, or they were first grown separately as seedlings and transplanted into the test containers a few days prior to treatment. Depending on the species, the plants were kept at 10-25° C. or 20-35° C., respectively. The test period extended over 2 to 4 weeks. During this time, the plants were tended, and their response to the individual treatments was evaluated. Evaluation was carried out using a scale from 0 to 100. 100 means no emergence of the plants, or complete destruction of at least the aerial moieties, and 0 means no damage, or normal course of growth. […] The plants used in the greenhouse experiments were of the following species: [table]

ECHCG [2] = assay: greenhouse post-emergence herbicidal test; assay type: in vivo, Echinocloa crus-galli; settings: post-emergence method, scale from 0 to 100
In short: (§3)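 Read-out is a visual 0–100 injury rating, 100 meaning complete destruction of at least aerial parts and 0 meaning normal growth. It was taken over 2–4 weeks after plants 3–15 cm tall were treated with compound suspended or emulsified in water.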

POLCO = assay: greenhouse post-emergence herbicidal test; assay type: in vivo, Polygonum convolvulus; settings: post-emergence method, scale from 0 to 100
In short: as §3

SETFA = assay: greenhouse pre-emergence herbicidal test; assay type: in vivo, Setaria faberi; settings: pre-emergence method, application rate 1000 g/ha, scale from 0 to 100
Description: (§4) The seeds of the test plants were sown separately for each species. For the pre-emergence treatment, the active ingredients, which had been suspended or emulsified in water, were applied directly after sowing by means of finely distributing nozzles. The containers were irrigated gently to promote germination and growth and subsequently covered with transparent plastic hoods until the plants had rooted. This cover caused uniform germination of the test plants, unless this had been impaired by the active ingredients. Depending on the species, the plants were kept at 10-25° C. or 20-35° C., respectively. The test period extended over 2 to 4 weeks. During this time, the plants were tended, and their response to the individual treatments was evaluated. Evaluation was carried out using a scale from 0 to 100. 100 means no emergence of the plants, or complete destruction of at least the aerial moieties, and 0 means no damage, or normal course of growth. […] The plants used in the greenhouse experiments were of the following species: [table]

ABUTH = assay: greenhouse post-emergence herbicidal test; assay type: in vivo, Abutilon theophrasti; settings: post-emergence method, application rate 1000 g/ha, scale from 0 to 100
In short: as §3

AMARE [3] = assay: greenhouse post-emergence herbicidal test; assay type: in vivo, Amaranthus retroflexus; settings: post-emergence method, scale from 0 to 100
In short: as §3

ECHCG [4] = assay: greenhouse pre-emergence herbicidal test; assay type: in vivo, Echinocloa crus-galli; settings: pre-emergence method, application rate 500 g/ha, scale from 0 to 100
In short: as §1

SETVI [5] = assay: greenhouse pre-emergence herbicidal test; assay type: in vivo, Setaria viridis; settings: pre-emergence method, application rate 1000 g/ha, scale from 0 to 100
Description: as §4

AMARE [6] = assay: greenhouse pre-emergence herbicidal test; assay type: in vivo, Amaranthus retroflexus; settings: pre-emergence method, scale from 0 to 100
Description: as §4

ALOMY = assay: greenhouse post-emergence herbicidal test; assay type: in vivo, Alopercurus myosuroides; settings: post-emergence method, application rate 1000 g/ha, scale from 0 to 100
In short: as §3

AVEFA [7] = assay: greenhouse post-emergence herbicidal test; assay type: in vivo, Avena fatua; settings: post-emergence method, scale from 0 to 100
In short: as §3

APESV [8] = assay: greenhouse post-emergence herbicidal test; assay type: in vivo, Apera spica-venti; settings: post-emergence method, application rate 500 g/ha, scale from 0 to 100
Description: as §2

AVEFA [9] = assay: greenhouse pre-emergence herbicidal test; assay type: in vivo, Avena fatua; settings: pre-emergence method, application rate 500 g/ha, scale from 0 to 100
Description: as §4

SETVI [10] = assay: greenhouse post-emergence herbicidal test; assay type: in vivo, Setaria viridis; settings: post-emergence method, application rate 500 g/ha, scale from 0 to 100
Description: as §2

CCc1ncc(-c2ccccc2Cl)c(C(=O)O)n1 [example 6]
herbicidal activity against APESV (APESV [1]; application rate 500 g/ha): very good (a very good herbicidal activity is given at values of at least 85) | herbicidal activity against LOLMU (LOLMU; application rate 500 g/ha): good (A good herbicidal activity is given at values of at least 70) | herbicidal activity against ECHCG (ECHCG [2]; application rate 500 g/ha): very good (a very good herbicidal activity is given at values of at least 85) | herbicidal activity against POLCO (POLCO; application rate 500 g/ha): very good (a very good herbicidal activity is given at values of at least 85)

CCc1ncc(-c2cc(C)ccc2C)c(C(=O)O)n1 [example 9]
herbicidal activity against APESV (APESV [1]; application rate 1000 g/ha): very good (a very good herbicidal activity is given at values of at least 85) | herbicidal activity against SETFA (SETFA): very good (a very good herbicidal activity is given at values of at least 85) | herbicidal activity against ABUTH (ABUTH): very good (a very good herbicidal activity is given at values of at least 85) | herbicidal activity against AMARE (AMARE [3]; application rate 1000 g/ha): good (A good herbicidal activity is given at values of at least 70)

Cc1ccc(C)c(-c2cnc(C(C)C)nc2C(=O)O)c1 [example 34]
herbicidal activity against APESV (APESV [1]; application rate 500 g/ha): very good (a very good herbicidal activity is given at values of at least 85) | herbicidal activity against LOLMU (LOLMU; application rate 500 g/ha): good (A good herbicidal activity is given at values of at least 70) | herbicidal activity against ECHCG (ECHCG [2]; application rate 500 g/ha): very good (a very good herbicidal activity is given at values of at least 85) | herbicidal activity against ECHCG (ECHCG [4]): very good (a very good herbicidal activity is given at values of at least 85)

COc1ccccc1-c1cnc(OC(C)C)nc1C(=O)O [example 74]
herbicidal activity against SETVI (SETVI [5]): good (A good herbicidal activity is given at values of at least 70)

COC(=O)c1nc(SC)ncc1-c1cc(C)ccc1Cl [example 117]
herbicidal activity against AMARE (AMARE [6]; application rate 500 g/ha): good (A good herbicidal activity is given at values of at least 70) | herbicidal activity against ECHCG (ECHCG [4]): good (A good herbicidal activity is given at values of at least 70)

Cc1ccccc1-c1cnc(C2CC2)nc1C(=O)O [example 161]
herbicidal activity against APESV (APESV [1]; application rate 1000 g/ha): very good (a very good herbicidal activity is given at values of at least 85) | herbicidal activity against LOLMU (LOLMU; application rate 1000 g/ha): good (A good herbicidal activity is given at values of at least 70) | herbicidal activity against AMARE (AMARE [3]; application rate 1000 g/ha): good (A good herbicidal activity is given at values of at least 70) | herbicidal activity against ALOMY (ALOMY): good (A good herbicidal activity is given at values of at least 70) | herbicidal activity against POLCO (POLCO; application rate 1000 g/ha): good (A good herbicidal activity is given at values of at least 70)

COC(=O)c1nc(C2CC2)ncc1-c1c(Cl)cc(F)cc1Cl [example 208]
herbicidal activity against AVEFA (AVEFA [7]; application rate 1000 g/ha): very good (a very good herbicidal activity is given at values of at least 85) | herbicidal activity against APESV (APESV [1]; application rate 1000 g/ha): very good (a very good herbicidal activity is given at values of at least 85) | herbicidal activity against ALOMY (ALOMY): very good (a very good herbicidal activity is given at values of at least 85) | herbicidal activity against AMARE (AMARE [6]; application rate 1000 g/ha): good (A good herbicidal activity is given at values of at least 70)

C#CCOC(=O)c1nc(C2CC2)ncc1-c1ccccc1Cl [example 256]
herbicidal activity against AVEFA (AVEFA [7]; application rate 500 g/ha): very good (a very good herbicidal activity is given at values of at least 85) | herbicidal activity against APESV (APESV [1]; application rate 500 g/ha): very good (a very good herbicidal activity is given at values of at least 85) | herbicidal activity against APESV (APESV [8]): very good (a very good herbicidal activity is given at values of at least 85) | herbicidal activity against AVEFA (AVEFA [9]): very good (a very good herbicidal activity is given at values of at least 85) | herbicidal activity against ECHCG (ECHCG [2]; application rate 500 g/ha): very good (a very good herbicidal activity is given at values of at least 85) | herbicidal activity against ECHCG (ECHCG [4]): very good (a very good herbicidal activity is given at values of at least 85)

COC(=O)c1nc(C2CCC2)ncc1-c1ccccc1C [example 264]
herbicidal activity against APESV (APESV [1]; application rate 1000 g/ha): good (A good herbicidal activity is given at values of at least 70) | herbicidal activity against SETFA (SETFA): very good (a very good herbicidal activity is given at values of at least 85) | herbicidal activity against ABUTH (ABUTH): very good (a very good herbicidal activity is given at values of at least 85) | herbicidal activity against AMARE (AMARE [3]; application rate 1000 g/ha): very good (a very good herbicidal activity is given at values of at least 85)

COC(=O)c1nc(C2CCCO2)ncc1-c1ccccc1C (centres unmarked) [example 276]
herbicidal activity against ABUTH (ABUTH): very good (a very good herbicidal activity is given at values of at least 85) | herbicidal activity against AMARE (AMARE [3]; application rate 1000 g/ha): very good (a very good herbicidal activity is given at values of at least 85) | herbicidal activity against AMARE (AMARE [6]; application rate 1000 g/ha): very good (a very good herbicidal activity is given at values of at least 85)

CN(C)C(=O)c1nc(C2CC2)ncc1-c1ccccc1Cl [example 285]
herbicidal activity against APESV (APESV [1]; application rate 500 g/ha): good (A good herbicidal activity is given at values of at least 70) | herbicidal activity against AMARE (AMARE [6]; application rate 500 g/ha): good (A good herbicidal activity is given at values of at least 70)

CS(=O)(=O)NC(=O)c1nc(C2CC2)ncc1-c1ccccc1Cl [example 286]
herbicidal activity against APESV (APESV [1]; application rate 500 g/ha): very good (a very good herbicidal activity is given at values of at least 85) | herbicidal activity against LOLMU (LOLMU; application rate 500 g/ha): very good (a very good herbicidal activity is given at values of at least 85) | herbicidal activity against AMARE (AMARE [3]; application rate 500 g/ha): very good (a very good herbicidal activity is given at values of at least 85) | herbicidal activity against ECHCG (ECHCG [4]): very good (a very good herbicidal activity is given at values of at least 85)

CN(C)S(=O)(=O)NC(=O)c1nc(C2CC2)ncc1-c1ccccc1Cl [example 287]
herbicidal activity against APESV (APESV [1]; application rate 500 g/ha): very good (a very good herbicidal activity is given at values of at least 85) | herbicidal activity against LOLMU (LOLMU; application rate 500 g/ha): very good (a very good herbicidal activity is given at values of at least 85) | herbicidal activity against AMARE (AMARE [6]; application rate 500 g/ha): very good (a very good herbicidal activity is given at values of at least 85) | herbicidal activity against ECHCG (ECHCG [2]; application rate 500 g/ha): very good (a very good herbicidal activity is given at values of at least 85) | herbicidal activity against POLCO (POLCO; application rate 500 g/ha): very good (a very good herbicidal activity is given at values of at least 85)

NC(=O)c1nc(C2CC2)ncc1-c1ccccc1Cl [example 288]
herbicidal activity against APESV (APESV [1]; application rate 500 g/ha): very good (a very good herbicidal activity is given at values of at least 85) | herbicidal activity against SETVI (SETVI [10]): very good (a very good herbicidal activity is given at values of at least 85) | herbicidal activity against AMARE (AMARE [6]; application rate 500 g/ha): very good (a very good herbicidal activity is given at values of at least 85) | herbicidal activity against POLCO (POLCO; application rate 500 g/ha): very good (a very good herbicidal activity is given at values of at least 85)

COC(=O)CCSC(=O)c1nc(C2CC2)ncc1-c1ccccc1Cl [example 307]
herbicidal activity against AVEFA (AVEFA [7]; application rate 250 g/ha): very good (a very good herbicidal activity is given at values of at least 85) | herbicidal activity against APESV (APESV [1]; application rate 250 g/ha): very good (a very good herbicidal activity is given at values of at least 85) | herbicidal activity against LOLMU (LOLMU; application rate 250 g/ha): very good (a very good herbicidal activity is given at values of at least 85) | herbicidal activity against ECHCG (ECHCG [2]; application rate 250 g/ha): good (A good herbicidal activity is given at values of at least 70)
